The target in one data set is T1, L-type calcium channel (Rattus norvegicus, UniProt P22002).
T1 construct: membrane fragments of rat cardiac muscle; from tissue; host or cells: rat cardiac muscle membranes
Description: Competition binding of [3H]nitrendipine to membrane fragments of rat cardiac muscle. As to conditions: [3H]nitrendipine.

A further data set deals with T2, α2B receptor (Homo sapiens, UniProt P18089).
T2 construct: host or cells: LM(tk-) cells, line L-NGC-α2B
T2 sequence (P18089 1-450): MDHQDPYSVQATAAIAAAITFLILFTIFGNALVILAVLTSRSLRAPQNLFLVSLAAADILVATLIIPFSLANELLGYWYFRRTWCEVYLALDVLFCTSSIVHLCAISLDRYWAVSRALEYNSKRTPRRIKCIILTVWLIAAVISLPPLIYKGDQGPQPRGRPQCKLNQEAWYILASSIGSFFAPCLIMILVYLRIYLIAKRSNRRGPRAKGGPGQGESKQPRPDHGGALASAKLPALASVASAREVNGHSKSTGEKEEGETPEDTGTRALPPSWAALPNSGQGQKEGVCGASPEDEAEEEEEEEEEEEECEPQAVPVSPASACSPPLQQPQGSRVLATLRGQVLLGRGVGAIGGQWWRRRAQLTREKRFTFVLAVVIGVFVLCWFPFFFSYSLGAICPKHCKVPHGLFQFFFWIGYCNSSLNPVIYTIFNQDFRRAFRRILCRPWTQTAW
Description: Competition binding, [3H]rauwolscine, human α2B receptor. Particulars: [3H]rauwolscine, LM(tk-) cell line L-NGC-α2B; SEM and n in lines below. From the text:
The protocols for these experiments are given below.
α2 Human Adrenergic Receptors:
To determine the potency of […], antagonists at the α2 receptors, LM(tk−) cell lines stably transfected with the genes encoding the α2A, α2B, and α2C receptors were used. The cell line expressing the α2A receptor is designated L-α2A, and was deposited on Nov. […] The cell line expressing the α2B receptor is designated L-NGC-α2B, and was deposited on Oct. […] The cell line expressing the α2C receptor is designated L-α2C, and was deposited on Nov. […] Cell lysates were prepared as described above (see Radioligand Binding Assays), and suspended in 25 mM glycylglycine buffer (pH 7.6 at room temperature). Equilibrium competition binding assay were performed using [3H]rauwolscine (0.5 nM), and nonspecific binding was determined by incubation with 10 μM phentolamine. The bound radioligand was separated by filtration through GF/B filters using a cell harvester.

The target of data set [1] is T3, α1A Human Adrenergic Receptor (Homo sapiens, UniProt P25100).
T3 construct: The entire coding region of α1A (1719 bp); expressed in transfected cells
T3 sequence (P25100 1-572): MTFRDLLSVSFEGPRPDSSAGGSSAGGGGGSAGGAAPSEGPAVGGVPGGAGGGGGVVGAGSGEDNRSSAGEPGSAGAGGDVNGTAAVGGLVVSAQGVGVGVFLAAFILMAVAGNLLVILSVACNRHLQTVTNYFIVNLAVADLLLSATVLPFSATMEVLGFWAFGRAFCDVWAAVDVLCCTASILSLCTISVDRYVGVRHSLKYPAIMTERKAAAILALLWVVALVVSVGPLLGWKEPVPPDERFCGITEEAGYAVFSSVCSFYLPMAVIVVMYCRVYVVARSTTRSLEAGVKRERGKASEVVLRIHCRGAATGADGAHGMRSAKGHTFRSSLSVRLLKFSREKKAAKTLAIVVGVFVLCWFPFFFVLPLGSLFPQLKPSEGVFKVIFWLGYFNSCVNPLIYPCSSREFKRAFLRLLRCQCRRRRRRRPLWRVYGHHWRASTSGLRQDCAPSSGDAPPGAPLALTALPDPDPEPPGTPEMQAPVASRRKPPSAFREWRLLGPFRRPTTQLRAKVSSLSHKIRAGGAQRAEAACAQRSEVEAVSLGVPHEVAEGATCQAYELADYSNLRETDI
Description: Radioligand binding, [3H]prazosin, cloned human α1A adrenergic receptor. A digest of the protocol: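 Binding of [3H]prazosin (0.5 nM) was measured at 37° C over 20 min in pH 7.5 Tris/MgCl2/ascorbate buffer, using membrane preparations of LM(tk−) cells expressing cloned human α1A receptor. Filtration through GF/B filters stopped the reaction. 10 μM phentolamine gave nonspecific binding.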

The target in data set [2] is T4, α1C Human Adrenergic Receptor (Homo sapiens, UniProt P35348).
T4 construct: The entire coding region of α1C (1401 bp); expressed in transfected cells
T4 sequence (P35348 1-466): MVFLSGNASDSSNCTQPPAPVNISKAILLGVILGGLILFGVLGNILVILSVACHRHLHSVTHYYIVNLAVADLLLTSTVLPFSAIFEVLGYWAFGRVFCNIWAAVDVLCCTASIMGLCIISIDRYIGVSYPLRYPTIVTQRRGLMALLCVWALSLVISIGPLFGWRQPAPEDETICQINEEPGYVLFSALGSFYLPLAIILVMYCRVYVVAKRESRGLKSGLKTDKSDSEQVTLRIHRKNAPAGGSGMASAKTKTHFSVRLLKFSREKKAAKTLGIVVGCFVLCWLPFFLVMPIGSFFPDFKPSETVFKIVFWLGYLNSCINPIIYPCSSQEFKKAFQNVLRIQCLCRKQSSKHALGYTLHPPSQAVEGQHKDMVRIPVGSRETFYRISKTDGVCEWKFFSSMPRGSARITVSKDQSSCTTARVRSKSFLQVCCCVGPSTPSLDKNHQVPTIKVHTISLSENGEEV
Description: Radioligand binding, [3H]prazosin, cloned human α1C adrenergic receptor. Summed up: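 Stably transfected mouse LM(tk−) fibroblast membranes bearing the cloned human α1C adrenoceptor served as receptor source. Specific binding was taken as the portion of 0.5 nM [3H]prazosin displaceable by 10 μM phentolamine after 20 min at 37° C., pH 7.5, in Mg2+/ascorbate-containing Tris buffer.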

Data set [3] has as its target T5, α1B Human Adrenergic Receptor (Homo sapiens, UniProt P35368).
T5 construct: The entire coding region of α1B (1563 bp); expressed in transfected cells
T5 sequence (P35368 1-520): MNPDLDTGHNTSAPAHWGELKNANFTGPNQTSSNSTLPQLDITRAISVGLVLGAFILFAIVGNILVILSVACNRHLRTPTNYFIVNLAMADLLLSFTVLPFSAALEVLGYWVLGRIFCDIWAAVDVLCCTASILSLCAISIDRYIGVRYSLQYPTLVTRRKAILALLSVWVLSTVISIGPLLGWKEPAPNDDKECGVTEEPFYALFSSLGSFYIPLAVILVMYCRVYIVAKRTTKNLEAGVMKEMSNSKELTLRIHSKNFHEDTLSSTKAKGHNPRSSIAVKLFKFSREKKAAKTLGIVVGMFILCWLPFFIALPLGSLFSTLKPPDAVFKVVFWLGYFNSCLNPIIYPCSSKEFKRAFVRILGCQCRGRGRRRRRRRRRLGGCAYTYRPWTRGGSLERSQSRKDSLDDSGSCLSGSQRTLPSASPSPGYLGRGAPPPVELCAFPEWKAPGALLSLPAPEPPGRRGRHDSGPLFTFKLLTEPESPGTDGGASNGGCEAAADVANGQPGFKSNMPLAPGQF
Description: Radioligand binding, [3H]prazosin, cloned human α1B adrenergic receptor. A digest of the protocol: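 [3H]prazosin (0.5 nM) binding was run for 20 min at 37° C in pH 7.5 Tris/MgCl2/ascorbate buffer on membranes of LM(tk−) cells stably expressing the cloned receptor. Filtration through GF/B ended the reaction; 10 μM phentolamine gave nonspecific binding.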

Where [4] appears, read: rat cardiac muscle membranes, SEM and n in lines below, read-out: pKi Ca (converted).
The mark [5] stands for this setting: rat cardiac muscle membranes, mean, read-out: PKi Ca (converted).
Setting [6] is: rat cardiac muscle membrane fragments, L-type calcium channel, read-out: pKi Ca (converted).
[7] abbreviates: pKi alpha-1 1a, [3H]prazosin, cloned human α1A receptor, LM(tk−) cell membranes.
The mark [8] stands for this setting: pKi alpha-1 1c, cloned human α1C receptor, LM(tk−) cell membranes.
[9] abbreviates: pKi alpha-1 1b, cloned human α1B receptor, LM(tk−) cell membranes.

Like-named read-outs stand apart in the source and are kept apart here.

T1 sequence (P22002 whole entry, other chains not shown, the tested form may be a part): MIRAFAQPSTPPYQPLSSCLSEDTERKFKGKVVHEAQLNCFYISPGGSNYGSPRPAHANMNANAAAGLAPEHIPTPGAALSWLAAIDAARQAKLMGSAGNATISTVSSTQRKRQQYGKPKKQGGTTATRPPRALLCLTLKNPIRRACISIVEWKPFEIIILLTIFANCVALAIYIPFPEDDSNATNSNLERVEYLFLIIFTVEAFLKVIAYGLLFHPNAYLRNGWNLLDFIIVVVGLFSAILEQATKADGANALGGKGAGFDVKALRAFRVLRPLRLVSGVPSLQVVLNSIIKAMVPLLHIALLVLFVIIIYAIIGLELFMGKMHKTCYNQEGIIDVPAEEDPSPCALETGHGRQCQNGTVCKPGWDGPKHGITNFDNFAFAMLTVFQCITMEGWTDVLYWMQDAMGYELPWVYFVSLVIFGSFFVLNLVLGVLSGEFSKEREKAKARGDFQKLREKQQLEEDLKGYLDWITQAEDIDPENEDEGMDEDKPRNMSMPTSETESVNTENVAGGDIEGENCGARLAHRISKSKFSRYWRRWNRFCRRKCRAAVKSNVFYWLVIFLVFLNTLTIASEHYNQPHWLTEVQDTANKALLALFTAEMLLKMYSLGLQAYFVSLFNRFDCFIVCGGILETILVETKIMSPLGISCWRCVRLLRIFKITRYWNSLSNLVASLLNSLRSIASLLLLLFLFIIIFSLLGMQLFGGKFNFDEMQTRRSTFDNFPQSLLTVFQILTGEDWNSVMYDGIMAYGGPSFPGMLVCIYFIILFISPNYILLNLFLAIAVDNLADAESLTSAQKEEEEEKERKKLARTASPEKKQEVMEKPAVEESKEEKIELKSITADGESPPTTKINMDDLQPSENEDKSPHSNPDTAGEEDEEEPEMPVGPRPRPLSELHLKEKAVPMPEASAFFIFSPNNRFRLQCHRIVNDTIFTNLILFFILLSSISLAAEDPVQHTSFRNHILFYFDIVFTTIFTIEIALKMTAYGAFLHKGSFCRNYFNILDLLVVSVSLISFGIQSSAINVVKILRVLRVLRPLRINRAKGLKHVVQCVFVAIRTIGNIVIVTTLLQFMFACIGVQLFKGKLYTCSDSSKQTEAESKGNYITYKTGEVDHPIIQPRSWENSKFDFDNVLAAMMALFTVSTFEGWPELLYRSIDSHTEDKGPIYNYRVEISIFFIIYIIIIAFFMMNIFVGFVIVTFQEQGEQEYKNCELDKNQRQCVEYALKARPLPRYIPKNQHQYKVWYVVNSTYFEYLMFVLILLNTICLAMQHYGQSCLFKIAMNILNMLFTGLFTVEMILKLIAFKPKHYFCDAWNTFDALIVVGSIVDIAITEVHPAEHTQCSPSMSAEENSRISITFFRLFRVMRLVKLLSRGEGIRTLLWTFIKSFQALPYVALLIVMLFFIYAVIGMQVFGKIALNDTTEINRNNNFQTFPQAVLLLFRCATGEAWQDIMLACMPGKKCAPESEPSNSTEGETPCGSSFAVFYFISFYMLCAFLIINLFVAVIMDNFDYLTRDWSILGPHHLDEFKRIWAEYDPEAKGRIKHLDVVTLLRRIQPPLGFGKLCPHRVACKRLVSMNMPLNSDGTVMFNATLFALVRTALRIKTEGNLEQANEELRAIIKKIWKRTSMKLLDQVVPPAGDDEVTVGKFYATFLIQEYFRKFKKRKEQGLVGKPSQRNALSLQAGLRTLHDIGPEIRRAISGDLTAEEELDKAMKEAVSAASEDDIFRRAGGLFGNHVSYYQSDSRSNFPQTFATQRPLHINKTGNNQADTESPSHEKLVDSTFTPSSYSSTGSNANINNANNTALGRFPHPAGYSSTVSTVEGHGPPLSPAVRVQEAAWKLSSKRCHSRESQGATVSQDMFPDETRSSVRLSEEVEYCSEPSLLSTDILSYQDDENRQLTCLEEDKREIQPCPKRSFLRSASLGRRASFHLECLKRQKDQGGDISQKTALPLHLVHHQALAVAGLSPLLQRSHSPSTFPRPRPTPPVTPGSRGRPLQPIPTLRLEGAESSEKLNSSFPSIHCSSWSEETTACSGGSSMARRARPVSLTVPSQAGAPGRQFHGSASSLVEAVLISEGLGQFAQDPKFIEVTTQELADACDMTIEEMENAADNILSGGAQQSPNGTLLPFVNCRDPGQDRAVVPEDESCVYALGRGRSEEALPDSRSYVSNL
T1 sequence (P54290 25-944 partner limits assumed, other chains not shown): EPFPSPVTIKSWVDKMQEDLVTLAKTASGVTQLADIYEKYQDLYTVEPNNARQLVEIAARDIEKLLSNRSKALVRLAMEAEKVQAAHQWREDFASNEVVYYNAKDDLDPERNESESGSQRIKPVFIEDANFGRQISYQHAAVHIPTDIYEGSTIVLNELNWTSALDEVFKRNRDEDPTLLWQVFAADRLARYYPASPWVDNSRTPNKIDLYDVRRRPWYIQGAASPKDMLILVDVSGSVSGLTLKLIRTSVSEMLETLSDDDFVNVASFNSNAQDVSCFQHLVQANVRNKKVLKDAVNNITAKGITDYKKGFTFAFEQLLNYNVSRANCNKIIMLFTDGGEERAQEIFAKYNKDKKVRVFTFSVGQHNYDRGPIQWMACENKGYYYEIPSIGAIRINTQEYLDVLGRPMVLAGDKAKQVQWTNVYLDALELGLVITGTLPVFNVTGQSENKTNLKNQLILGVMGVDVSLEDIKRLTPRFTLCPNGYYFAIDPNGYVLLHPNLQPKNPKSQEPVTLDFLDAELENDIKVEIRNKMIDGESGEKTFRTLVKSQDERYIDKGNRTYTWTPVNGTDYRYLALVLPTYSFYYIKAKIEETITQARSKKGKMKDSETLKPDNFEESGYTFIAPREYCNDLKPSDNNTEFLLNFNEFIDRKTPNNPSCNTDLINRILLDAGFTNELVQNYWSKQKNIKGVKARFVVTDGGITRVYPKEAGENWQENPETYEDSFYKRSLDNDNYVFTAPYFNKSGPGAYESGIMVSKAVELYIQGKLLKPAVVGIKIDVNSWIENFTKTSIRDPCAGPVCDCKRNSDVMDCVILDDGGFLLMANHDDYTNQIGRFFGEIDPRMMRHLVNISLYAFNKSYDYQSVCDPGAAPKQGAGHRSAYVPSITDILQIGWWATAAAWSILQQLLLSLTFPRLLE
T1 sequence (P54290 945-1091 partner limits assumed, other chains not shown): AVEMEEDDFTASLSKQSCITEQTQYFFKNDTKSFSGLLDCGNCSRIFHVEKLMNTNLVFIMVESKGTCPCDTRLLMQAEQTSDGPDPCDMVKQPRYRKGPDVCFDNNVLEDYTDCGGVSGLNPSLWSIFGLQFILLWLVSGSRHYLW

As to `CC1=C(C(N)=O)C(c2ccc([N+](=O)[O-])cc2)C(C(=O)NCCCN2CCC(c3ccccc3)(c3ccccc3)CC2)=C(C)N1` (single isomer, unassigned; (+)) [(+)-2], the “pKi Ca” value at L-type calcium channel (rat cardiac muscle membranes, SEM and n in lines below) is 4.11. On α2B receptor, the “pKi alpha-2 2b” value came to 6.40. Moreover, the “pKi alpha-1 1a” value in data set [1] ([3H]prazosin, cloned human receptor in LM(tk-) cell membranes, SEM and n in lines below) turned out to be 6.40.

For `CC1=C(C(N)=O)C(c2ccc([N+](=O)[O-])cc2)C(C(=O)NCCCN2CCC(c3ccccc3)(c3ccccc3)CC2)=C(C)N1` (single isomer, unassigned; (-)) [(−)-2], the Ki on L-type calcium channel (setting [4]) is 1820 µM. Also, the “pKi alpha-2 2b” value at α2B receptor is given as 6.56. The “pKi alpha-1 1a” value in data set [1] amounted to 6.46.

Regarding `CC1=C(C(N)=O)C(c2ccc([N+](=O)[O-])cc2)C(C(=O)NCCCN2CCC(c3ccccc3)(c3ccccc3)CC2)=C(C)N1` (racemic) [(±)-2], the Ki at L-type calcium channel (setting [4]) was 200 µM. In addition, the “pKi alpha-2 2b” value on α2B receptor is given as 6.38. The “pKi alpha-1 1a” value in data set [1] is given as 6.22.

Broadly, the melting point is the temperature, or range, at which the solid turns liquid. Regarding `CCC1=C(C(=O)O)C(c2ccc([N+](=O)[O-])cc2)C(C(=O)NCCCN2CCC(C#N)(c3ccccc3)CC2)=C(COC)N1` (centres unmarked) [Example 222, 3-(N-(3-(4-Cyano-4-phenylpiperidin-1-yl)propyl))carboxamido-6-ethyl-1,4-dihydro-2-methyloxymethyl-4-(4-nitro) phenylpyridine-5-carboxylic Acid], the melting point was 115 °C (dec.). For the same molecule, at L-type calcium channel (setting [5]), the Ki is 282 µM. The Ki in data set [1] (PKi alpha-1 1a, [3H]prazosin, cloned human receptor, LM(tk-) cell membranes, mean) was 14.1 µM. In data set [2] (PKi alpha-1 1c, cloned human receptor, LM(tk-) cell membranes, mean), the Ki is 0.0417 µM. In data set [3] (PKi alpha-1 1b, cloned human receptor, LM(tk-) cell membranes, mean), the Ki is 6.76 µM.

Molecule `CCC1=C(C(=O)O)C(c2ccc([N+](=O)[O-])cc2)C(C(=O)NCCCN2CCC(C(=O)OC)(c3ccccc3)CC2)=C(COCCN=[N+]=[N-])N1` (centres unmarked) [Example 227, 2-((2-Azidoethyl)oxy)methyl-6-ethyl-1,4-dihydro-3-(N-(3-(4-methoxycarbonyl-4-phenylpiperidin-1-yl)propyl))carbo xamido-4-(4-nitro)phenylpyridine-5-carboxylic Acid] displayed a melting point of 110 to 120 °C. The Ki on L-type calcium channel (setting [5]) is 70.8 µM. Besides, the Ki in data set [1] ([3H]prazosin, cloned human receptor, LM(tk-) cell membranes, mean, read-out: PKi alpha-1 1a (converted)) was 5.13 µM. In addition, the Ki in data set [2] (cloned human receptor, LM(tk-) cell membranes, mean, read-out: PKi alpha-1 1c (converted)) was 0.0234 µM. Also, the Ki in data set [3] (cloned human receptor, LM(tk-) cell membranes, mean, read-out: PKi alpha-1 1b (converted)) was 2.63 µM.

Molecule `CCNC(=O)C1=C(C)NC(C)=C(C(=O)NCCCN2CCC(c3ccccc3)(c3ccccc3)CC2)C1c1ccc([N+](=O)[O-])cc1` (centres unmarked) [Example 131, 5-(N-Ethyl)carboxamido-1,4-dihydro-2,6-dimethyl-4-(4-nitrophenyl)-3-{N-[3-(4,4-diphenylpiperidin-1-yl)propyl]}carboxamidopyridine] had a melting point of 104 to 108 °C. Also, the Ki at L-type calcium channel (setting [6]) is 100 µM. This molecule had a Ki in data set [1] (setting [7]) of 1.48 µM. The molecule further showed a Ki in data set [2] (setting [8]) of 0.00457 µM. In data set [3] (setting [9]), this molecule gave a Ki of 0.851 µM.

Molecule `CCCC1=C(C(=O)O)C(c2ccc([N+](=O)[O-])cc2)C(C(=O)NCCCN2CCC(c3ccccc3)(c3ccccc3)CC2)=C(CCC)N1` (centres unmarked) [Example 161, 1,4-Dihydro-4-(4-nitrophenyl)-5-{N-[3-(4,4-diphenylpiperidin-1-yl)propyl]}carboxamido-2,6-dipropylpyridine-3-carboxylic acid] gave a melting point of 126 to 130 °C. For the same molecule, the Ki on L-type calcium channel (setting [6]) is 1000 µM. Also, in data set [1] (setting [7]), the Ki was 1.32 µM. In data set [2] (setting [8]), this molecule had a Ki of 0.0389 µM. In data set [3] (setting [9]), the Ki was 0.407 µM.
